Reference: ChEMBL document CHEMBL4725445, “Discovery of a Cyclic Choline Analog That Inhibits Anaerobic Choline Metabolism by Human Gut Bacteria” (ACS Med Chem Lett, 2020)

Tests used:
[1] = molecular target: T1, Choline trimethylamine-lyase (Desulfovibrio alaskensis, UniProt Q30W70); assay: Inhibition of Desulfovibrio desulfuricans (strain G20) CutC assessed as reduction in TMA by spectrophotometry
T1 sequence (Q30W70 whole entry): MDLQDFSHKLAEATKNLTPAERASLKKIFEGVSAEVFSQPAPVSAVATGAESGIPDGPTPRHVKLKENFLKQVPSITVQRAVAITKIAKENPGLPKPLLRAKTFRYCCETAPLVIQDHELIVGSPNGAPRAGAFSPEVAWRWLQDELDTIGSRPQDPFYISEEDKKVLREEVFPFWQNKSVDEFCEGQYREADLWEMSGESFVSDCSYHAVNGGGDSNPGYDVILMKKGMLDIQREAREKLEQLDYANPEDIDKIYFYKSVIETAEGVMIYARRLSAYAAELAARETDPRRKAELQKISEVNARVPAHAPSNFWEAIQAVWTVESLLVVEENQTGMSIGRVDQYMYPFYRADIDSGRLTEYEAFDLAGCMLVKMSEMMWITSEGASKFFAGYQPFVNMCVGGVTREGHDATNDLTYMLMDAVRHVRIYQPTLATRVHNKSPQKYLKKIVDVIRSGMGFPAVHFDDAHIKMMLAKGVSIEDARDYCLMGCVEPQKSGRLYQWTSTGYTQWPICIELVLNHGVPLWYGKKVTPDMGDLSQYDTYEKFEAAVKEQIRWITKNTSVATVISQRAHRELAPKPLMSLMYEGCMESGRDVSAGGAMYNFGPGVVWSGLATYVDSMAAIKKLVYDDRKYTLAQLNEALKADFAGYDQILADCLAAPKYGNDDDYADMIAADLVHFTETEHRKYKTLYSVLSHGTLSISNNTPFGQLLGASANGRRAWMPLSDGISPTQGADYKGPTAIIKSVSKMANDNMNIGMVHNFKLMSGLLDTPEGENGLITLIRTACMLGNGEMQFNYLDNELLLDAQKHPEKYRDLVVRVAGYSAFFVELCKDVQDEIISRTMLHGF

[2] = Inhibition of CutC in Escherichia coli MS 200-1 assessed as reduction in TMA formation incubated for 3.5 hrs under anaerobic condition in presence of d9-choline by LC-MS-MS analysis
[3] = Inhibition of TMA formation in human fecal suspension by LC-MS/MS; format: functional, tissue-based, Feces
[4] = Inhibition of Escherichia coli MS 69-1 CutC assessed as TMA formation by LC-MS/MS
[5] = Inhibition of Proteus mirabilis CutC assessed as TMA formation by LC-MS/MS
[6] = Inhibition of Klebsiella sp. MS 92-3 CutC assessed as TMA formation by LC-MS/MS; set-up: species or system Klebsiella pneumoniae
[7] = Inhibition of Clostridium sporogenes CutC assessed as TMA formation by LC-MS/MS

Row | Structure (SMILES) | IC50 [2] [µM] | other results
1 | OC1C=CCN(C2CCC2)C1 (stereo not drawn) | 190 | IC50 [1]: 200 µM
2 | CC1=CC(O)CN(C)C1 (stereo not drawn) | 920 | 
3 | C[N+](C)(C)CC=O [BETAINE ALDEHYDE] |  | IC50 [3]: 1270 µM; IC50 [4]: 465 µM; IC50 [5]: 2490 µM; IC50 [6]: 212 µM; IC50 [7]: 1000 µM
4 | CN1CC=C[C@@H](O)C1 | 31 | 
5 | CN1CCC(O)C1 (stereo not drawn) | 6300 | 
6 | CN1CC=CC(O)C1 (stereo not drawn) | 10 | 
7 | C[N+]1(C)CC=CC(O)C1 (stereo not drawn) | 7.6 | 
8 | OC1C=CCCC1 (stereo not drawn) | 260 | 
9 | [2H]C1(O)C=CCN(C)C1 (stereo not drawn) | 30 | 
10 | CCCN1CC=CC(O)C1 (stereo not drawn) | 200 | 
11 | CN1CC=C[C@H](O)C1 | 9.8 | IC50 [3]: 60 µM; IC50 [4]: 22 µM; IC50 [5]: 92 µM; IC50 [6]: 4 µM; IC50 [7]: 12 µM
12 | CN1CCCC(O)CC1 (stereo not drawn) | 760 | 
13 | CN1CCCC(=O)C1 | 27000 | IC50 [1]: > 10000 µM
14 | CC(=O)OC1C=CCN(C)C1 (stereo not drawn) | 1800 | 
15 | CN1CCC(O)CC1 | 1600 | 
16 | OC1C=CCN(Cc2ccccc2)C1 (stereo not drawn) | 370 | 
17 | OC1C=CCOC1 (stereo not drawn) | 80 | 
